{"source": "paper PMC9403976", "about": "“Elucidating the path to Plasmodium prolyl-tRNA synthetase inhibitors that overcome halofuginone resistance” (Nature Communications, 2022)", "key": {"[1]": {"molecular_target": "T1, PfcProRS (Plasmodium falciparum, UniProt Q8I5R7)", "T1 construct": "made in house; host or cells: E. coli SoluBL-21", "T1 sequence (Q8I5R7 249-746)": "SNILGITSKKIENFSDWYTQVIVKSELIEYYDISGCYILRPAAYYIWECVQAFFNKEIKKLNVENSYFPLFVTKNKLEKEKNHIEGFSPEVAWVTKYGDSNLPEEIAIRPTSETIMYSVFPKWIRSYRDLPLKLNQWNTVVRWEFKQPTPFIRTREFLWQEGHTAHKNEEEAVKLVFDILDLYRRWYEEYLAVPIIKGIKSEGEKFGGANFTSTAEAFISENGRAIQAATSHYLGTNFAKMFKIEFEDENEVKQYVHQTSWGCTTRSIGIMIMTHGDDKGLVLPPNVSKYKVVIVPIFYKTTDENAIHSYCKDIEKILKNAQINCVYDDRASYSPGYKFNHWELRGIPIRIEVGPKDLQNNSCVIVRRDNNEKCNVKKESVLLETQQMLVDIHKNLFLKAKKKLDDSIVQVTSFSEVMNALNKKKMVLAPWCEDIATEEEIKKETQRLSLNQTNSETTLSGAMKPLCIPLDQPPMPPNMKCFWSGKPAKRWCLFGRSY", "type": "binding", "conditions": "for dose-response signal (normalized), SI Fig 8: single replicates"}, "[2]": {"system": "P. falciparum Dd2-2D4", "test": "P. falciparum asexual blood stage (ABS) growth assay, SYBR Green, 72 h, wild-type parasites", "type": "cell-based, Plasmodium falciparum", "conditions": "wildtype (Dd2-2D4); 20 μM"}, "[3]": {"molecular_target": "HsProRS (Homo sapiens, UniProt P07814)", "sequence (P07814 996-1512)": "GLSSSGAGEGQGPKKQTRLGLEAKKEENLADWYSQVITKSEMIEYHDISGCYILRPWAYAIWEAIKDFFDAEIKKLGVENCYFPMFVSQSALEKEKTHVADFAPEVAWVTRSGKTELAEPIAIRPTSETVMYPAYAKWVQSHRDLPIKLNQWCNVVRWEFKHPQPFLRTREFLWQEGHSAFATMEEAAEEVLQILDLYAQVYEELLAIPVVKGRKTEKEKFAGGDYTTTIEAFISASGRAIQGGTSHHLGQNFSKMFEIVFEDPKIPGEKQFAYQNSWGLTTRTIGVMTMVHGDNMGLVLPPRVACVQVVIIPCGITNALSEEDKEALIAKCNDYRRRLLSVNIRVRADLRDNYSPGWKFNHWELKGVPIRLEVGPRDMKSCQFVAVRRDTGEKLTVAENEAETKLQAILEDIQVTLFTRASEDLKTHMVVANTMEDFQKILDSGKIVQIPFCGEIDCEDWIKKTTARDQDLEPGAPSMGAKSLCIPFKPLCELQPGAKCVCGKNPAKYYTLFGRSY", "test": "TR-FRET ligand displacement assay with tracer MAT379 (CoraFluor-1-Halo and anti-His6 antibody formats)", "type": "binding", "parameters": "made in house; host or cells: E. coli SoluBL-21", "conditions": "for TR-FRET dose-response, normalized signal (SI Fig 11): individual replicates"}}, "note": "Several values for one entry are separate records, joined by “and”; a condition that tells them apart may be missing. Equal entries are not always repeated. Where two headings read alike, the source gives them in different places.", "data": [{"smiles": "O=C(NC1Cc2ccccc2C1)c1nccnc1NC(=O)C1CCOCC1", "note": "[compound 18]", "values": [{"measurement": "dose-response signal (normalized), SI Fig 8", "setting": "[1]; Log[inhibitor] (M) -5.000", "value": "3.01E-01 and 4.11E-01 and 4.27E-01"}, {"measurement": "dose-response signal (normalized), SI Fig 8", "setting": "[1]; Log[inhibitor] (M) -5.301", "value": "6.53E-01 and 6.16E-01 and 6.73E-01"}, {"measurement": "dose-response signal (normalized), SI Fig 8", "setting": "[1]; Log[inhibitor] (M) -5.601", "value": "8.02E-01 and 8.42E-01 and 8.63E-01"}, {"measurement": "dose-response signal (normalized), SI Fig 8", "setting": "[1]; Log[inhibitor] (M) -5.904", "value": "1.01E+00 and 1.00E+00 and 9.12E-01"}, {"measurement": "dose-response signal (normalized), SI Fig 8", "setting": "[1]; Log[inhibitor] (M) -6.208", "value": "1.03E+00 and 1.00E+00 and 9.60E-01"}, {"measurement": "dose-response signal (normalized), SI Fig 8", "setting": "[1]; Log[inhibitor] (M) -6.509", "value": "1.16E+00 and 9.38E-01 and 1.04E+00"}, {"measurement": "dose-response signal (normalized), SI Fig 8", "setting": "[1]; Log[inhibitor] (M) -6.796", "value": "9.96E-01 and 9.92E-01 and 1.04E+00"}, {"measurement": "dose-response signal (normalized), SI Fig 8", "setting": "[1]; Log[inhibitor] (M) -7.108", "value": "1.02E+00 and 9.74E-01 and 9.75E-01"}, {"measurement": "dose-response signal (normalized), SI Fig 8", "setting": "[1]; Log[inhibitor] (M) -7.409", "value": "1.01E+00 (2×) and 1.08E+00"}, {"measurement": "dose-response signal (normalized), SI Fig 8", "setting": "[1]; Log[inhibitor] (M) -7.710", "value": "9.82E-01 and 1.05E+00 and 9.42E-01"}, {"measurement": "dose-response signal (normalized), SI Fig 8", "setting": "[1]; Log[inhibitor] (M) -8.000", "value": "1.03E+00 and 1.10E+00 and 9.98E-01"}, {"measurement": "dose-response signal (normalized), SI Fig 8", "setting": "[1]; Log[inhibitor] (M) -8.301", "value": "9.51E-01 and 1.13E+00 and 9.71E-01"}, {"measurement": "dose-response signal (normalized), SI Fig 8", "setting": "[1]; Log[inhibitor] (M) -8.602", "value": "1.03E+00 and 9.75E-01 and 1.04E+00"}, {"measurement": "dose-response signal (normalized), SI Fig 8", "setting": "[1]; Log[inhibitor] (M) -9.000", "value": "9.05E-01 and 1.01E+00 and 9.83E-01"}, {"measurement": "dose-response signal (normalized), SI Fig 8", "setting": "[1]; Log[inhibitor] (M) -9.301", "value": "9.17E-01 and 9.20E-01 and 9.09E-01"}, {"measurement": "PfcProRS -- best Kd", "setting": "[1]; SI Fig 16a, values on -log scale", "value": 5.799}, {"measurement": "% signal at 20 μM, wildtype (Dd2-2D4)", "setting": "[2]", "value": 108, "unit": "%"}, {"measurement": "Kd", "setting": "[3]; HsProRS (KD [nM]) mean, no added proline/ATP (-)", "value": 7400, "unit": "nM"}, {"measurement": "Kd", "setting": "[3]; HsProRS - best Kd, SI Fig 16a, values on -log scale", "value": 225, "unit": "nM"}, {"measurement": "normalized TR-FRET ligand displacement signal, dose-response replicates (SI Fig 6)", "setting": "[3]; Log[inhibitor] (M) -5.000", "value": "6.96E-01 and 5.92E-01 and 5.43E-01"}, {"measurement": "TR-FRET dose-response, normalized signal (SI Fig 11)", "setting": "[3]; Log[inhibitor] (M) -5.000", "value": "4.20E-01 and 4.17E-01 and 4.61E-01"}, {"measurement": "normalized TR-FRET ligand displacement signal, dose-response replicates (SI Fig 6)", "setting": "[3]; Log[inhibitor] (M) -5.301", "value": "8.37E-01 and 8.70E-01 and 8.44E-01"}, {"measurement": "TR-FRET dose-response, normalized signal (SI Fig 11)", "setting": "[3]; Log[inhibitor] (M) -5.301", "value": "6.08E-01 and 6.33E-01 and 6.32E-01"}, {"measurement": "normalized TR-FRET ligand displacement signal, dose-response replicates (SI Fig 6)", "setting": "[3]; Log[inhibitor] (M) -5.601", "value": "9.23E-01 and 9.21E-01 and 9.37E-01"}, {"measurement": "TR-FRET dose-response, normalized signal (SI Fig 11)", "setting": "[3]; Log[inhibitor] (M) -5.601", "value": "7.60E-01 and 7.57E-01 and 7.53E-01"}, {"measurement": "normalized TR-FRET ligand displacement signal, dose-response replicates (SI Fig 6)", "setting": "[3]; Log[inhibitor] (M) -5.904", "value": "9.48E-01 and 1.01E+00 and 1.07E+00"}, {"measurement": "TR-FRET dose-response, normalized signal (SI Fig 11)", "setting": "[3]; Log[inhibitor] (M) -5.904", "value": "8.33E-01 and 8.64E-01 and 8.38E-01"}, {"measurement": "normalized TR-FRET ligand displacement signal, dose-response replicates (SI Fig 6)", "setting": "[3]; Log[inhibitor] (M) -6.208", "value": "1.06E+00 (2×) and 1.00E+00"}, {"measurement": "TR-FRET dose-response, normalized signal (SI Fig 11)", "setting": "[3]; Log[inhibitor] (M) -6.208", "value": "8.52E-01 and 9.04E-01 and 9.21E-01"}, {"measurement": "normalized TR-FRET ligand displacement signal, dose-response replicates (SI Fig 6)", "setting": "[3]; Log[inhibitor] (M) -6.509", "value": "1.01E+00 and 1.02E+00 and 9.62E-01"}, {"measurement": "TR-FRET dose-response, normalized signal (SI Fig 11)", "setting": "[3]; Log[inhibitor] (M) -6.509", "value": "9.56E-01 and 9.24E-01 and 9.57E-01"}, {"measurement": "normalized TR-FRET ligand displacement signal, dose-response replicates (SI Fig 6)", "setting": "[3]; Log[inhibitor] (M) -6.796", "value": "9.72E-01 and 9.92E-01 and 1.02E+00"}, {"measurement": "TR-FRET dose-response, normalized signal (SI Fig 11)", "setting": "[3]; Log[inhibitor] (M) -6.796", "value": "9.31E-01 (2×) and 9.72E-01"}, {"measurement": "normalized TR-FRET ligand displacement signal, dose-response replicates (SI Fig 6)", "setting": "[3]; Log[inhibitor] (M) -7.108", "value": "9.59E-01 and 8.74E-01 and 9.90E-01"}, {"measurement": "TR-FRET dose-response, normalized signal (SI Fig 11)", "setting": "[3]; Log[inhibitor] (M) -7.108", "value": "9.27E-01 and 9.12E-01 and 9.11E-01"}, {"measurement": "normalized TR-FRET ligand displacement signal, dose-response replicates (SI Fig 6)", "setting": "[3]; Log[inhibitor] (M) -7.409", "value": "9.78E-01 and 1.02E+00 and 1.05E+00"}, {"measurement": "TR-FRET dose-response, normalized signal (SI Fig 11)", "setting": "[3]; Log[inhibitor] (M) -7.409", "value": "9.66E-01 (2×) and 9.82E-01"}, {"measurement": "normalized TR-FRET ligand displacement signal, dose-response replicates (SI Fig 6)", "setting": "[3]; Log[inhibitor] (M) -7.710", "value": "9.30E-01 and 1.05E+00 and 1.11E+00"}, {"measurement": "TR-FRET dose-response, normalized signal (SI Fig 11)", "setting": "[3]; Log[inhibitor] (M) -7.710", "value": "9.81E-01 and 9.38E-01 and 9.42E-01"}, {"measurement": "normalized TR-FRET ligand displacement signal, dose-response replicates (SI Fig 6)", "setting": "[3]; Log[inhibitor] (M) -8.000", "value": "9.51E-01 and 9.79E-01 and 1.05E+00"}, {"measurement": "TR-FRET dose-response, normalized signal (SI Fig 11)", "setting": "[3]; Log[inhibitor] (M) -8.000", "value": "9.53E-01 and 9.52E-01 and 9.49E-01"}, {"measurement": "normalized TR-FRET ligand displacement signal, dose-response replicates (SI Fig 6)", "setting": "[3]; Log[inhibitor] (M) -8.301", "value": "9.09E-01 and 9.22E-01 and 9.59E-01"}, {"measurement": "TR-FRET dose-response, normalized signal (SI Fig 11)", "setting": "[3]; Log[inhibitor] (M) -8.301", "value": "9.20E-01 and 1.00E+00 and 8.97E-01"}, {"measurement": "normalized TR-FRET ligand displacement signal, dose-response replicates (SI Fig 6)", "setting": "[3]; Log[inhibitor] (M) -8.602", "value": "9.55E-01 and 9.72E-01 and 1.02E+00"}, {"measurement": "TR-FRET dose-response, normalized signal (SI Fig 11)", "setting": "[3]; Log[inhibitor] (M) -8.602", "value": "9.41E-01 and 9.60E-01 and 9.87E-01"}, {"measurement": "normalized TR-FRET ligand displacement signal, dose-response replicates (SI Fig 6)", "setting": "[3]; Log[inhibitor] (M) -9.000", "value": "9.17E-01 and 1.01E+00 and 9.46E-01"}, {"measurement": "TR-FRET dose-response, normalized signal (SI Fig 11)", "setting": "[3]; Log[inhibitor] (M) -9.000", "value": "9.26E-01 and 9.53E-01 and 9.30E-01"}, {"measurement": "normalized TR-FRET ligand displacement signal, dose-response replicates (SI Fig 6)", "setting": "[3]; Log[inhibitor] (M) -9.301", "value": "9.60E-01 and 1.07E+00 and 9.73E-01"}, {"measurement": "TR-FRET dose-response, normalized signal (SI Fig 11)", "setting": "[3]; Log[inhibitor] (M) -9.301", "value": "9.44E-01 and 9.56E-01 and 9.33E-01"}]}]}
